Measured values as given in patent US10117950B2, “Compounds and compositions for the treatment of ocular disorders” (Graybug Vision, Inc., priority 2015, dated 2018).
Where two headings read alike, the source gives them in different places.

Tests used:
[1] = Determination of drug solubility; type: physicochemical; details: for solubility: thermodynamic from solid
Method: For each test, approximately 5-10 mg was transferred to a 10 mL glass vial. Aqueous or organic solvent was added to each vial to achieve an overall concentration of 50 mg/mL. After vortexing aggressively for 2-3 minutes and sonicating in a bath sonicator for 5 minutes, undissolved drug was spun down at 1200 rpm for 5 minutes to generate a pellet. The supernatant was collected and filtered through a 0.2 μm nylon syringe filter into HPLC vials for drug content analysis. Drug concentration was determined by comparing against a standard calibration curve.

[2] = target: T1, bovine erythrocyte carbonic anhydrase II (Bos taurus, UniProt P00921); assay: Carbonic anhydrase II inhibition, colorimetric 4-nitrophenyl acetate hydrolysis; type: biochemical; details: for IC50: n = 2
T1 construct: purified bovine erythrocyte carbonic anhydrase II; from tissue; host or cells: bovine erythrocytes
Method: The catalytic activity of carbonic anhydrase II was assessed by a colorimetric method, in which 4-nitrophenyl acetate is hydrolyzed to acetate and nitrophenolate. The nitrophenolate ionizes to generate a bright yellow anion that is readily detected by measuring its absorbance at 350-400 nm. […] Acetazolamide was added as a positive control and 100% DMSO was added as a negative control. The reaction was initiated with the addition of 20 μL of 4-nitrophenyl acetate (0.7 mM in ethanol).

[3] = In vitro stability of brinzolamide and dorzolamide NCEs (RP-HPLC); details: PBS pH 7, 10% DMSO; for in vitro stability / degradation kinetics: 37° C. and accelerated conditions, 14-19 days; for primary compound remaining: 37° C.
Method: The samples were incubated at 37° C. or 50° C. to simulate physiological and accelerated degradation conditions, respectively. At various time points, 100 μL of the solution was collected, diluted 10-fold with MeCN+0.1% formic acid, filtered through a 0.2 μm nylon syringe filter and analyzed by RP-HPLC.

[4] = In vitro stability of bifunctional conjugates (HPLC, 254 nm); type: physicochemical; details: PBS pH 7.0, 20% DMSO
Method: Briefly, brinzolamide-PLA (n=4)-succinate-5-hydroxy-sunitinib (60-1) or dorzolamide-PLA (n=4)-succinate-5-hydroxy-sunitinib (58-5) was first dissolved in a solution of PBS (pH 7.0) with 20% DMSO (v/v) and incubated at 37° C. or 60° C. for 14 days.

[5] = DMSO, organic solvent or mixture, read-out: Solubility DMSO
[6] = water / aqueous solvent, read-out: Solubility Water
[7] = DCM, organic solvent or mixture, read-out: Solubility DCM

T1 sequence (P00921 whole entry): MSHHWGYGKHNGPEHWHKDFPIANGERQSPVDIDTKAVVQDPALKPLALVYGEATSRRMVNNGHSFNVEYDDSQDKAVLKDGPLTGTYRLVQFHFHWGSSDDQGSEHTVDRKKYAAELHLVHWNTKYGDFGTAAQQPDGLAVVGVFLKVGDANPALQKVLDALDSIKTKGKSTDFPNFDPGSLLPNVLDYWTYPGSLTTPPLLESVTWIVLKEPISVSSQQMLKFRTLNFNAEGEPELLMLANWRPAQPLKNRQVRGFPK

| solubility [1, 5] [mg/mL] | solubility [1, 6] [mg/mL] | IC50 [2] [µM] | solubility [1, 7] [mg/mL] | Structure (SMILES) | also measured |
| --- | --- | --- | --- | --- | --- |
| > 50 | < 1 | 0.184 ± 0.0448 | – | CCN[C@H]1C[C@H](C)S(=O)(=O)c2sc(S(=O)(=O)NC(=O)[C@H](C)OC(=O)[C@H](C)OC(=O)[C@H](C)OC(=O)CCC(=O)Oc3ccc4c(c3)/C(=C/c3[nH]c(C)c(C(=O)NCCN(CC)CC)c3C)C(=O)N4)cc21 [56-5, (3Z)-3-[(4-{[2-(Diethylamino)ethyl]carbamoyl}-3,5-dimethyl-1H-pyrrol-2-yl)methylidene]-2-oxo-2,3-dihydro-1H-indol-5-yl 1-(2S)-1-{[(2S)-1-[(1S)-1-({[(2S,4S)-4-(ethylamino)-2-methyl-1,1-dioxo-2H,3H,4H-1λ^6-thieno[2,3-b]thiopyran-6-yl]sulfonyl}carbamoyl)ethoxy]-1-oxopropan-2-yl]oxy}-1-oxopropan-2-yl butanedioate] | carbonic anhydrase inhibitory activity [2]: lowest inhibitory activity |
| – | – | 0.00332 ± 0.00271 | – | CCN[C@H]1C[C@H](C)S(=O)(=O)c2sc(S(=O)(=O)NC(=O)[C@H](C)O)cc21 [19-3, dorzolamide-PLA (n=1)] | in vitro stability / degradation kinetics [3]: the most stable |
| > 50 | > 50 | – | > 50 | CCN[C@H]1CN(CCCOC)S(=O)(=O)c2sc(S(=O)(=O)NC(=O)[C@H](C)OC(=O)[C@H](C)OC(=O)[C@H](C)OC(C)=O)cc21 [36-1, brinzolamide-acetyl PLA (n=3)] | primary compound remaining ([3]; day 7): approximately 15.4% |
| > 50 | > 50 | 0.0164 ± 0.00725 | > 50 | CCN[C@H]1C[C@H](C)S(=O)(=O)c2sc(S(=O)(=O)NC(=O)[C@H](C)OC(=O)[C@H](C)OC(=O)[C@H](C)OC(C)=O)cc21 [26-1] | – |
| > 50 | > 50 | 0.0215 ± 0.0112 | > 50 | CCN[C@H]1CN(CCCOC)S(=O)(=O)c2sc(S(=O)(=O)NC(=O)[C@H](C)OC(=O)[C@H](C)OC(=O)[C@H](C)O)cc21 [34-2, brinzolamide-PLA (n=3)] | in vitro stability / degradation kinetics [3]: minimal degradation to the parent compound; primary compound remaining ([3]; day 7): approximately 2.7% |
| > 50 | > 50 | 0.0107 ± 0.00727 | > 50 | CCN[C@H]1CN(CCCOC)S(=O)(=O)c2sc(S(=O)(=O)NC(=O)[C@H](C)OC(=O)[C@H](C)O)cc21 [33-2, brinzolamide-PLA (n=2)] | primary compound remaining ([3]; 14 days): approximately 53% |
| > 50 | < 1 | – | > 50 | CCN[C@H]1C[C@H](C)S(=O)(=O)c2sc(S(=O)(=O)NC(=O)[C@H](C)OC(=O)[C@H](C)OC(=O)[C@H](C)OC(=O)[C@H](C)OC(=O)[C@H](C)OC(=O)[C@H](C)OC(C)=O)cc21 [29-1, dorzolamide-acetyl PLA (n=6)] | – |
| < 1 | > 50 | – | < 1 | CCN[C@H]1C[C@H](C)S(=O)(=O)c2sc(S(N)(=O)=O)cc21 [Dorzolamide, reference compound] | organic solubility ([1]; organic solvent): low organic solubility; Solubility Water ([1]; water / aqueous solvent): >50 mg/mL |
| > 50 | < 1 | 0.0415 ± 0.0112 | > 50 | CCN[C@H]1CN(CCCOC)S(=O)(=O)c2sc(S(=O)(=O)NC(=O)[C@H](C)OC(=O)[C@H](C)OC(=O)[C@H](C)OC(=O)[C@H](C)OC(C)=O)cc21 [37-1, brinzolamide-acetyl PLA (n=4)] | – |
| – | – | – | – | C=C(CC)C(=O)c1ccc(OCC(=O)O)c(Cl)c1Cl [54-1, ethacrynic acid] | Solubility DMSO ([1]; DMSO): >50 mg/mL; Solubility Water ([1]; water / aqueous solvent): <1.0 mg/mL |
| – | – | – | – | CCN[C@H]1CN(CCCOC)S(=O)(=O)c2sc(S(=O)(=O)NC(=O)[C@H](C)OC(=O)[C@H](C)OC(=O)[C@H](C)OC(C)(C)C)cc21 [40-1, brinzolamide-t-butyl PLA (n=3)] | in vitro stability / degradation kinetics [3]: significantly slower than its acetylated (36-1) or uncapped counterpart (34-2) |
| > 50 | < 1 | 0.0441 ± 0.0148 | > 50 | CCN[C@H]1C[C@H](C)S(=O)(=O)c2sc(S(=O)(=O)NC(=O)[C@H](C)OC(=O)[C@H](C)OC(=O)[C@H](C)OC(=O)[C@H](C)OC(C)=O)cc21 [27-1] | – |
| > 50 | < 1 | – | – | CCN(CC)CCNC(=O)c1c(C)[nH]c(/C=C2\C(=O)Nc3ccc(N)cc32)c1C [47-1, 5-[5-amino-2-oxo-1,2-dihydro-indol-(3Z)-ylidenemethyl]-2,4-dimethyl-1H-pyrrole-3-carboxylic acid (2-diethylamino-ethyl)-amide] | – |
| > 50 | < 1 | – | – | CCN[C@H]1CN(CCCOC)S(=O)(=O)c2sc(S(=O)(=O)NC(=O)[C@H](C)OC(=O)[C@H](C)OC(=O)[C@H](C)OC(=O)[C@H](C)OC(=O)CCC(=O)Oc3ccc4c(c3)/C(=C/c3[nH]c(C)c(C(=O)NCCN(CC)CC)c3C)C(=O)N4)cc21 [60-1, brinzolamide-PLA(n=4)-succinate-5-hydroxy-Sunitinib] | PLA (n=4) signal ([4]; after one day of incubation): 15.7%; PLA (n=4) signal ([4]; before incubation): 83%; degradation kinetics ([4]; one day): rapidly hydrolyzed |
| – | – | – | – | CCN[C@H]1CN(CCCOC)S(=O)(=O)c2sc(S(=O)(=O)NC(=O)[C@H](C)OC(=O)[C@H](C)OC(=O)[C@H](C)OC(=O)CCCCC(=O)Oc3ccc4c(c3)/C(=C/c3[nH]c(C)c(C(=O)NCCN(CC)CC)c3C)C(=O)N4)cc21 [61-3, (3Z)-3-[(4-{[2-(diethylamino)ethyl]carbamoyl}-3,5-dimethyl-1H-pyrrol-2-yl)methylidene]-2-oxo-2,3-dihydro-1H-indol-5-yl 1-(2S)-1-[(2S)-1-[(1S)-1-({[(4R)-4-(ethylamino)-2-(3-methoxypropyl)-1,1-dioxo-2H,3H,4H-1λ^6-thieno[3,2-e][1,2]thiazin-6-yl]sulfonyl}carbamoyl)ethoxy]-1-oxopropan-2-yl]oxy}-1-oxopropan-2-yl hexanedioate] | Solubility DMSO ([1]; DMSO): >50 mg/mL; Solubility Water ([1]; water / aqueous solvent): <1.0 mg/mL |
| > 50 | < 1 | 0.0892 ± 0.0181 | > 50 | CCN[C@H]1C[C@H](C)S(=O)(=O)c2sc(S(=O)(=O)NC(=O)[C@H](C)OC(=O)[C@H](C)OC(=O)[C@H](C)OC(=O)[C@H](C)OC(=O)[C@H](C)OC(C)=O)cc21 [28-1, dorzolamide-acetyl PLA (n=5)] | – |
| – | – | 0.00578 ± 0.00378 | – | CCN[C@H]1CN(CCCOC)S(=O)(=O)c2sc(S(=O)(=O)NC(=O)[C@H](C)O)cc21 [32-3, brinzolamide-PLA (n=1)] | in vitro stability / degradation kinetics [3]: slowest; primary compound remaining ([3]; 14 days): > 98% |
| > 50 | < 1 | – | – | CCN(CC)CCNC(=O)c1c(C)[nH]c(/C=C2\C(=O)Nc3ccc(OC(=O)CCCCC(=O)N(CC)[C@H]4CN(CCCOC)S(=O)(=O)c5sc(S(=O)(=O)NC(=O)[C@H](C)OC(=O)[C@H](C)OC(=O)[C@H](C)O)cc54)cc32)c1C [61-2, (3Z)-3-[(4-{[2-(diethylamino)ethyl]carbamoyl}-3,5-dimethyl-1H-pyrrol-2-yl)methylidene]-2-oxo-2,3-dihydro-1H-indol-5-yl 5-{ethyl[(4R)-6-{[(2S)-2-{[(2S)-2-{[(2S)-2-hydroxypropanoyl]oxy}propanoyl]oxy}propanamido]sulfonyl}-2-(3-methoxypropyl)-1,1-dioxo-2H,3H,4H-1λ^6-thieno[3,2-e][1,2]thiazin-4-yl]carbamoyl}pentanoate] | – |
| > 50 | < 1 | 0.102 ± 0.0314 | > 50 | CCN[C@H]1CN(CCCOC)S(=O)(=O)c2sc(S(=O)(=O)NC(=O)[C@H](C)OC(=O)[C@H](C)OC(=O)[C@H](C)OC(=O)[C@H](C)OC(=O)[C@H](C)OC(C)=O)cc21 [38-1, brinzolamide-acetyl PLA (n=5)] | – |
| > 50 | < 1 | – | < 7.5 | CCN[C@H]1CN(CCCOC)S(=O)(=O)c2sc(S(N)(=O)=O)cc21 [Brinzolamide, reference compound] | Solubility DMSO ([1]; DMSO): >50 mg/mL; Solubility Water ([1]; water / aqueous solvent): <1.0 mg/mL |
| > 50 | < 1 | 0.172 ± 0.0356 | > 50 | CCN[C@H]1CN(CCCOC)S(=O)(=O)c2sc(S(=O)(=O)NC(=O)[C@H](C)OC(=O)[C@H](C)OC(=O)[C@H](C)OC(=O)[C@H](C)OC(=O)[C@H](C)OC(=O)[C@H](C)OC(C)=O)cc21 [39-1, brinzolamide-acetyl PLA (n=6)] | – |
